Series [1] in a line: Stability in human liver microsomes assessed as half life. The series is classed as ADME, Microsome.
Series [2] in a line: Apparent permeability from basolateral side to apical side in human Caco2 cells. The format is ADME, cell-based. The note with it: Caco-2.
Series [3] can be described thus: Solubility of compound at >100 uM. The format is physicochemical.
Series [4] is described as follows: Apparent permeability from apical side to basolateral side in human Caco2 cells. The format is ADME, cell-based. The conditions noted are these: Caco-2. (In general: Passage across Caco-2 layers is used to estimate intestinal permeability.)
A short description of series [5]: Stability in moue liver microsomes assessed as intrinsic clearance. The format is ADME, Microsome. The conditions noted are these: mouse, read-out: CLH.
Series [6] is described as follows: Stability in mouse liver microsomes assessed as half life. The series is classed as ADME, Microsome. Background: Microsomes from liver hold many membrane-bound enzymes, among them those of drug oxidation.
Series [7] is described as follows: Stability in human liver microsomes assessed as intrinsic clearance. The conditions noted are these: read-out: CLH. The series is classed as ADME, Microsome.
The test system of another series is U2OS. The series can be described thus: Cytotoxicity against human U2OS cells assessed as reduction in cell viability at >3 uM incubated for 2 days by propidium iodide staining based assay. The conditions noted are these: 48 h.
For series [8], the target named is T1, Histone-lysine N-methyltransferase EHMT2 (Homo sapiens, UniProt Q96KQ7).
T1 sequence (Q96KQ7 whole entry): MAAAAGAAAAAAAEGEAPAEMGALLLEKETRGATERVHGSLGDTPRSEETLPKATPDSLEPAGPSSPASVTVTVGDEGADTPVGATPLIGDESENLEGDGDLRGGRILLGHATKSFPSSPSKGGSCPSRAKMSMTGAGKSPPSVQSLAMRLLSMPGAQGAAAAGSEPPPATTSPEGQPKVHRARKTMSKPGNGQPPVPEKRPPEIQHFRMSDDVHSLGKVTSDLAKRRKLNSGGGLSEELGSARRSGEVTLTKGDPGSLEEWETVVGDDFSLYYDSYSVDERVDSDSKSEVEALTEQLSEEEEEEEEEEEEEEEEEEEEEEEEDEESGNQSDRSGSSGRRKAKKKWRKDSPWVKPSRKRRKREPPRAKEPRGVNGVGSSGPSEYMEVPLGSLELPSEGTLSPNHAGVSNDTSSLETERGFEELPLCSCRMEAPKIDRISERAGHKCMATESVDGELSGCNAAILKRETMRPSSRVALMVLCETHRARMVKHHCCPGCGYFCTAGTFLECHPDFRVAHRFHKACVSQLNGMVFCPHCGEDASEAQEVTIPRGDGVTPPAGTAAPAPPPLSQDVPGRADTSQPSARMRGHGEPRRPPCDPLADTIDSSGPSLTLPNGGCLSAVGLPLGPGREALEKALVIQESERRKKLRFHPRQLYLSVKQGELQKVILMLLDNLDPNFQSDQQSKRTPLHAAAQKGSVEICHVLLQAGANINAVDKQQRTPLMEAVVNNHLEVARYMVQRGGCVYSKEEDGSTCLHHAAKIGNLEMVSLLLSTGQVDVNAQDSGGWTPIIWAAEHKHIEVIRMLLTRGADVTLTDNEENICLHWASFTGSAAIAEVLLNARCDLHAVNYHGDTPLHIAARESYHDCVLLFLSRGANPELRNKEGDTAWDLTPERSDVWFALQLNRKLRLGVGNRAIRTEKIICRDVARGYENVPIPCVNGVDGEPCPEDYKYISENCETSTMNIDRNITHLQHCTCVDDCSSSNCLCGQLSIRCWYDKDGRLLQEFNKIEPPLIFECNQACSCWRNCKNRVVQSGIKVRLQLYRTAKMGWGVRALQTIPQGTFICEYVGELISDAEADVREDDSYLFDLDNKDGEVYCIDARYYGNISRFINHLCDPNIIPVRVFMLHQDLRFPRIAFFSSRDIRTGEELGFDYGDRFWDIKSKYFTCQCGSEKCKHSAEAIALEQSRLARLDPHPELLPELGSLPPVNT
The series can be described thus: Inhibition of G9a (unknown origin) by scintillation proximity Assay. The note with it: for pIC50: read-out: IC50. A general note: SPA uses beads or plates that emit light when radiolabelled molecules are held near them.

The next series concerns the target Spindlin-1 (Homo sapiens, UniProt Q9Y657). In words: Displacement of trimethylated biotinylated histone H3 peptide from recombinant human His-tagged SPIN1 (26 to 262 residues) expressed in Escherichia coli BL21 (DE3) incubated for 30 mins followed by peptide addition and measured after 1 hr by Alphascreen method.

Results on 14 molecules are retold here after ChEMBL document CHEMBL4321817, “A Chemical Probe for Tudor Domain Protein Spindlin1 to Investigate Chromatin Function” (J Med Chem, 2019).

pIC50: −log10 of the molar value.

Spindlin-1, sequence (Q9Y657 whole entry, the tested form may be a part): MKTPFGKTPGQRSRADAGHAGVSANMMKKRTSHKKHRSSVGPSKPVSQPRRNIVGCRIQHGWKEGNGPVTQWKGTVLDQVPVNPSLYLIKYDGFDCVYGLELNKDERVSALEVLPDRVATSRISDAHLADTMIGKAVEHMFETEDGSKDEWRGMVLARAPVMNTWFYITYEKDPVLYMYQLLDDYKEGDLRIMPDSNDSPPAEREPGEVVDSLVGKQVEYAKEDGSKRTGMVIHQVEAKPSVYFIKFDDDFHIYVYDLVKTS

Usually half-life stands for the time in which the quantity being followed falls by half. What is called Papp B→A is the apparent permeability from the basolateral to the apical side of a cell layer. Usually Papp A→B stands for how fast a substance crosses the layer from the apical side. As for `CC1(C)C(N)=Nc2cc(OCCCN3Cc4ccc(OCCc5cn(CC(=O)N6CCC(CCN7CCCC7)CC6)nn5)cc4C3)c(OCC3CC3)cc21`, the half-life turned out to be 68.4 min in series [1] and 37.1 min in series [6]. For the same molecule, in series [2], the Papp B→A was 6.07 ×10⁻⁶ cm/s. The solubility entry in series [3] is given as “Soluble”. In addition, in series [4], the Papp A→B amounted to 6.59 ×10⁻⁶ cm/s. For the same molecule, the microsomal CLint is 37.4 µL/min/mg in series [5] and 20.3 µL/min/mg in series [7]. In addition, the Activity result in the series with U2OS is “Non-Toxic”.
For the molecule `CC1(C)C(N)=Nc2cc(OCCCCN3Cc4ccc(OCc5cn(CC(=O)N6CCC(CCN7CCCC7)CC6)nn5)cc4C3)c(OCC3CC3)cc21`, the Activity result in the series with U2OS was “Non-Toxic”.
One may read the pIC50 as the negative decadic logarithm of the IC50, by convention in mol/L. Turning to `CC1(C)C(N)=Nc2cc(OCCCCN3Cc4ccccc4C3)c(OCC3CC3)cc21`, the IC50 entry in [8] is listed as “Not Active”. Further, on Spindlin-1, the negative-log IC50 (pIC50) is 5.16. In addition, in the series with U2OS, the Activity entry was “Toxic”.
On to `COc1cc2c(cc1OCCCN1CCCC1)N=C(N)C21CCCC1`, for which, in [8], the pIC50 is 8.22.
Same read-out and setting: for `CCOc1cc2c(cc1OCCCN1CCCC1)N=C(N)C21CCCC1` the value was 6.92.
`COc1cc2c(cc1OCCCN1Cc3cccc(OC)c3C1)N=C(N)C21CCCC1`: the negative logarithm of the IC50 (pIC50) at Spindlin-1 is 5.18.
Regarding `NC1=Nc2cc(OCCCN3CCCC3)c(OCC3CC3)cc2C12CCCC2`, the negative logarithm of the IC50 (pIC50) is 5.51 in series [8] and 5.95 at Spindlin-1.
Turning to `NC1=Nc2cc(OCCCN3Cc4ccccc4C3)c(OCC3CC3)cc2C12CCCC2`, the IC50 result in series [8] is “Not Active”. Further, the Activity entry in the series with U2OS is given as “Toxic”.
Take `NC1=Nc2cc(OCCCCN3Cc4ccccc4C3)c(OCC3CC3)cc2C12CCCC2`: the IC50 entry in series [8] is recorded as “Not Active”. For the same molecule, the pIC50 at Spindlin-1 is 5.21. For the same molecule, in the series on U2OS, the Activity result is “Toxic”.
Turning to `COc1ccc2c(c1)CN(CCCOc1cc3c(cc1OC)C1(CCCC1)C(N)=N3)C2`, at Spindlin-1, the pIC50 is 6.22.
Regarding `CC1(C)C(N)=Nc2cc(OCCCN3Cc4ccccc4C3)c(OCC3CC3)cc21`, the IC50 entry in [8] is on record as “Not Active”. The Activity entry with U2OS was “Toxic”.
As to `CC(C)Oc1cc2c(cc1OCCCN1CCCC1)N=C(N)C21CCCC1`, the values for the pIC50 (in series [8]; on Spindlin-1) were 6.05 and 5.05, respectively.
Taken in the same sequence, the figures for `COc1cc2c(cc1OCCCN1Cc3ccccc3C1)N=C(N)C21CCCC1` were 5.00 and 6.18.
As for `COc1ccc2c(c1)CN(CCCOc1cc3c(cc1OCC1CC1)C1(CCCC1)C(N)=N3)C2`, the pIC50 at Spindlin-1 was 6.47.
